# Test results from PubChem BioAssay AID686929 (Broad Institute, 2013).
# Several values for one entry are separate records, joined by “and”; a condition that tells them apart may be missing. Equal values may be shown once. Activity calls are given as the source filed them. No rule for the calls is given here.
# Tested on: V. cholerae BH1578 lux luminescence induction, 6 h
# Test: V. cholerae BH1578 lux luminescence induction, luxS cqsA deficient, confirmatory dose response (AID 686929)
# Conditions: not given
row,Compound,AC40
1,Cc1cc(F)c2cc3c(NC(=O)c4ccco4)nn(C)c3nc2c1,> 100 µM (inactive)
2,O=c1ncn(-c2cc(Cl)cc(Cl)c2)c2ccccc12,> 80 µM (inactive)
3,Cc1cc2nc3c(cc2cc1F)c(NC(=O)c1ccco1)nn3C,25.3 µM
4,CCc1ccc2cc3c(NC(=O)c4ccco4)nn(C)c3nc2c1,52.1 µM
5,Cc1cc2cc3c(NC(=O)c4ccco4)nn(C)c3nc2cc1C,45.7 µM
6,Cc1cc(F)cc2nc3c(cc12)c(NC(=O)c1ccco1)nn3C,83.3 µM
7,COc1ccc(-c2nnc(NC(=O)C3CCCCC3)o2)cc1,> 100 µM (inactive)
8,Cn1nc(NC(=O)c2ccco2)c2cc3ccccc3nc21,6.9 µM
9,O=C(Nc1nnc(-c2ccc3c(c2)OCCO3)o1)C1CCCCCC1,11.8 µM
10,CC(C)(C)COC(=O)CSc1n[nH]c(=O)[nH]c1=O,8.89 µM
11,CCCCCCCCCC(=O)C(O)CC (configuration not stated),3.81 µM
12,Cn1nc(NC(=O)c2ccco2)c2cccnc21,48.8 µM
13,Cc1ccc2cc3c(NC(=O)c4ccco4)nn(C)c3nc2c1,10.4 µM and 54.6 µM
14,COc1ccc2cc3c(NC(=O)c4ccco4)nn(C)c3nc2c1,2.97 µM
15,COc1ccccc1-c1nnc(NC(=O)C2CCCCC2)o1,> 100 µM (inactive)
16,O=C(Nc1nnc(-c2ccc3c(c2)OCCO3)o1)C1CCCCC1,5.45 µM and 1.91 µM
17,CCn1nnnc1NCc1ccc(C(C)C)cc1,0.923 µM
18,Cc1ccc2cc3c(NC(=O)c4cccs4)nn(C)c3nc2c1,> 80 µM (inactive)
19,CCCCCCCCCC(=O)[C@H](O)CC (racemic),11.5 µM
20,O=C(Cc1ccc(-c2ccccc2)cc1)NC1CCC1,1.74 µM
21,Cc1ccc2cc3c(NC(=O)C4CCCC4)nn(C)c3nc2c1,73.5 µM

# Tested on: not listed separately
# Test: as above
# Conditions: V. cholerae BH1578 lux luminescence induction, 6 h; at 35 µM (top of the series)
row,Compound,activation (light induction)
1,O=C(CC1CCCCC1)Nc1nnc(-c2ccc3c(c2)CCCC3)o1,0.065% (inactive)

# Same assay, conditions: V. cholerae BH1578 lux luminescence induction, 6 h; at 80 µM (top of the series)
row,Compound,activation (light induction)
1,O=c1ncn(-c2cccc(Cl)c2)c2cccc(Cl)c12,0% (inactive)
2,NC(=O)c1ccccc1Nc1ccccc1,0.096% (inactive)
3,Cc1ccc(-n2cnc(=O)c3ccccc32)cc1Cl,0.197% (inactive)
4,O=c1[nH]cnc2ccccc12,0.008% (inactive)
5,COc1ccc(-n2cnc(=O)c3ccccc32)cc1Cl,0.017% (inactive)
6,O=C(Nc1nnc(-c2ccc3c(c2)CCCC3)o1)C1CCC1,-0.004% (inactive)
7,Cc1nc(=O)c2ccccc2n1-c1cccc(Cl)c1,9.66% (inactive)
8,O=c1ncn(-c2ccc(Cl)c(Cl)c2)c2ccccc12,0.027% (inactive)
9,O=c1ncn(-c2cccc(Cl)c2)c2cc(Cl)ccc12,0.003% (inactive)
10,Cc1cccc(-n2cnc(=O)c3ccccc32)c1,6.74% (inactive)
11,COc1cccc(-n2cnc(=O)c3ccccc32)c1,0.108% (inactive)
12,Cn1cnc(=O)c2ccccc21,0.023% (inactive)
13,Cc1ccc2cc3c(NC(=O)c4ccoc4)nn(C)c3nc2c1,0.289% (inactive)
14,O=C(CC1CCCCC1)Nc1nnc(-c2cccnc2)o1,-0.004% (inactive)
15,O=C(Nc1nnc(-c2cccc(Cl)c2)o1)C1CCCCC1,0.048% (inactive)
16,CCOC(=O)c1ccccc1Nc1cccc(Cl)c1,0.004% (inactive)
17,O=c1nc(-c2ccccc2)n(-c2cccc(Cl)c2)c2ccccc12,-0.004% (inactive)
18,O=C(Nc1nnc(-c2ccc(Cl)cc2)o1)C1CCCCC1,0.013% (inactive)
19,CCC(C)(C)C(=O)Nc1nnc(-c2ccc3c(c2)OCCO3)o1,-0.001% (inactive)
20,O=c1nc(Cc2ccccc2)n(-c2cccc(Cl)c2)c2ccccc12,0.573% (inactive)

row,Compound,activation (light induction)
1,COc1ccc2c(=O)ncn(-c3cccc(Cl)c3)c2c1,0.008% (inactive)
2,O=c1ncn(Cc2ccc(Cl)cc2)c2ccccc12,0.035% (inactive)
3,Cc1ccc2c(c1)c(=O)ncn2-c1cccc(Cl)c1,2.5% (inactive)
4,O=C(CSc1nc2c(c(=O)[nH]1)CCCC2)NC1CCCCC1,0.02% (inactive)
5,O=C1C(=O)N(Cc2ccccc2Cl)c2ccccc21,0.156% (inactive)
6,O=C(CSc1nc2ccccc2c(=O)[nH]1)NC1CCCCC1,0.005% (inactive)
7,O=C1C(=O)N(Cc2cccc(Cl)c2)c2ccccc21,0.001% (inactive)
8,CCc1nc(=O)c2ccccc2n1-c1cccc(Cl)c1,0.156% (inactive)
9,O=c1ncn(-c2ccc(Cl)cc2)c2ccccc12,0.027% (inactive)
10,COC(=O)c1ccccc1Nc1cccc(Cl)c1,0.155% (inactive)
11,O=c1ncn(-c2ccccc2)c2ccccc12,4.58% (inactive)
12,O=C(O)c1ccccc1Nc1cccc(Cl)c1,0.019% (inactive)
13,O=c1ncn(-c2cccc(F)c2)c2ccccc12,12.4% (inactive)
14,O=c1ncn(-c2ccccc2Cl)c2ccccc12,0.05% (inactive)
15,NC(=O)c1ccccc1Nc1cccc(Cl)c1,0.018% (inactive)
16,O=c1ncn(-c2ccc(F)c(Cl)c2)c2ccccc12,1.31% (inactive)
17,Cc1ccc2c(=O)ncn(-c3cccc(Cl)c3)c2c1,0.023% (inactive)
18,O=C(Nc1nnc(-c2ccc3c(c2)OCCO3)o1)C1CCCC1,0.417% (inactive)
19,O=c1ncn(-c2cccc(Cl)c2)c2ccc(Cl)cc12,3.29% (inactive)

# Same assay, conditions: V. cholerae BH1578 lux luminescence induction, 6 h; at 100 µM (top of the series)
row,Compound,activation (light induction)
1,O=C(Nc1nnc(-c2cccnc2)o1)C1CCCCC1,3.01% (inactive)
2,O=C(Nc1nnc(-c2cccnc2)o1)C1CCC1,0% (inactive)
3,Cn1ccc(NC(=O)c2ccco2)n1,0.065% (inactive)
4,O=C(Nc1nnc(-c2ccc3c(c2)OCCO3)o1)C1CCC1,0.011% (inactive)
5,Cn1nc(NC(=O)c2ccco2)c2cc3ccc(C(C)(C)C)cc3nc21,-0.001% (inactive)
6,O=C(Nc1nnc(-c2ccc3c(c2)OCCO3)o1)C(F)(F)c1ccccc1,-0.005% (inactive)
7,COc1cccc(-c2nnc(NC(=O)C3CCCCC3)o2)c1,0% (inactive)
8,CN1CCC(C(=O)Nc2nnc(-c3ccc4c(c3)OCCO4)o2)CC1,0.038% (inactive)
9,COc1ccc(-c2nnc(NC(C)=O)o2)cc1,0.061% (inactive)
10,O=C(Nc1nnc(-c2ccccc2Cl)o1)C1CCCCC1,0.002% (inactive)
11,O=C(Cc1ccc(-c2ccccc2)cc1)N[C@@H]1CCOC1 (racemic),12.2% (inactive)
12,c1ccc(CNc2nnc(-c3ccc4c(c3)OCCO4)o2)cc1,0.008% (inactive)
13,Cc1ccc2cc3c(NC(=O)c4ccccn4)nn(C)c3nc2c1,-0.008% (inactive)
14,CCn1nnnc1N,0.004% (inactive)
15,Cc1ccc2cc3c(NC(=O)c4cc5ccccc5o4)nn(C)c3nc2c1,-0.011% (inactive)
16,O=C(Nc1nnc(-c2ccc3c(c2)OCCO3)o1)C1CC1,0.006% (inactive)

row,Compound,activation (light induction)
1,CC(C)c1ccc2cc3c(NC(=O)c4ccco4)nn(C)c3nc2c1,0.254% (inactive)
2,O=C(Cc1ccc(-c2ccccc2)cc1)NC1CNC1,0.02% (inactive)
3,C(=N\c1nnc(-c2ccc3c(c2)OCCO3)o1)/c1ccccc1,0.009% (inactive)
4,CN(C)/C=N/c1nnc(-c2ccc3c(c2)OCCO3)o1,0.03% (inactive)
5,CCn1nnnc1/N=C/c1ccc(N2CCCCC2)cc1,0.106% (inactive)
6,O=C(Nc1nnc(C2CCCC2)o1)C1CCCCC1,-0.004% (inactive)
7,COc1ccc(S(=O)(=O)Nc2nnc(-c3ccc4c(c3)OCCO4)o2)cc1,0.008% (inactive)
8,O=C(Cc1ccc(-c2ccccc2)cc1)NC1COC1,1.9% (inactive)
9,O=C(Nc1nnc(-c2ccncc2)o1)C1CCC1,0.061% (inactive)
10,Cn1nc(NC(=O)c2ccco2)c2ccccc21,0.203% (inactive)
11,CCn1nnnc1NC(C)c1ccc(N2CCCC2)cc1 (configuration not stated),11.2% (inactive)
12,O=S(=O)(Nc1nnc(-c2ccc3c(c2)OCCO3)o1)c1ccc(Cl)cc1,-0.005% (inactive)
13,CC(C)(C)OC(=O)N1CCC(C(=O)Nc2nnc(-c3ccc4c(c3)OCCO4)o2)CC1,0.022% (inactive)
14,Cc1ccc2cc3c(NC(=O)Cc4ccco4)nn(C)c3nc2c1,0.2% (inactive)
15,Cc1ccc2cc3c(NC(=O)c4ccc(C)o4)nn(C)c3nc2c1,-0.007% (inactive)
